Experimental data taken from patent US12221646B2, “Method for the rapid determination of susceptibility or resistance of bacteria to antibiotics” (ABM TECHNOLOGIES, LLC, priority 2013, dated 2025).
Read-outs that look alike come from different tables or passages of the source.

What was measured:
Format in all cases: cell-based
Pseudomonas aeruginosa = assay: Cell enlargement after one hour incubation with antibiotic, P. aeruginosa
Experimental: Pseudomonas aeruginosa, a common source of dangerous nosocomial infections, was also evaluated. […] Those correlated breakpoint concentrations for enlargement were 0.5 μg/ml for susceptible strains and greater than 1.0 μg/ml for resistant strains.
P. aeruginosa was evaluated for the effect of carbapenems, meropenem and imipenem, which we corroborate that induce cell enlargement in the susceptible strains of this bacterium. CLSI breakpoint concentrations of susceptibility and resistance correspond to MICs≤2-≥8 μg/ml, respectively. For cell enlargement, the new breakpoint concentrations were much lower: ≤0.2->0.5 μg/ml, for susceptibility and resistance, respectively. One hundred and thirty strains of P. aeruginosa were studied, obtaining 97 susceptible, 14 intermediate and 19 resistant to meropenem, following the standard criterion of growth affectation as indicated by MIC-CL SI. All these strains were correctly categorized when using the new breakpoints for enlargement/non-enlargement.

Acinetobacter baumannii [1] = assay: MIC of ceftazidime by E-test in A. baumannii strains; conditions: read-out: MIC determined by E-test
Klebsiella pneumoniae = assay: Cell enlargement after incubation with antibiotic, K. pneumoniae; conditions: correlated to CLSI MIC≤4 μg/ml
Experimental: Klebsiella pneumoniae, another significant pathogen in clinical settings, was also evaluated. […] Strains were considered to be resistant when no cell enlargement was presented at either concentration.

Acinetobacter baumannii [2] = assay: Cell enlargement after one hour incubation with antibiotic (microgel, SYBR Gold, fluorescence microscopy), A. baumannii
Experimental: Each dose was correlated to susceptibility breakpoints established in Example 1. The incubated samples were then assessed under microscopy for enlargement. The criterion of enlargement/non-enlargement was determined by a comparison to a control dose of 0 μg/ml. […] Using the criterion of enlargement/non-enlargement and the correlated breakpoint concentrations, each of the 320 strains were correctly identified.

Row | SMILES | cell enlargement, intermediate strains (Pseudomonas aeruginosa; incubation with 0.2 μg/ml and 0.5 μg/ml, 14 strains) | cell enlargement, resistant strains (Pseudomonas aeruginosa; incubation with 0.2 μg/ml and 0.5 μg/ml, 19 strains) | cell enlargement, susceptible strains (Pseudomonas aeruginosa; incubation with 0.2 μg/ml and 0.5 μg/ml, 97 strains) | MIC (Acinetobacter baumannii [1]; highly resistant strain of A. baumannii (FIG. 2, fourth row)) [µg/mL] | MIC (Acinetobacter baumannii [1]; intermediate strain of A. baumannii (FIG. 2, second row)) [µg/mL] | MIC (Acinetobacter baumannii [1]; susceptible strain of A. baumannii (FIG. 2, first row)) [µg/mL] | cell enlargement, resistant strains (Pseudomonas aeruginosa; 1 h incubation with 0.5 μg/ml and 1 μg/ml, 5 strains) | cell enlargement, intermediate strains (Pseudomonas aeruginosa; 1 h incubation with 0.5 μg/ml and 1 μg/ml, 8 strains) | cell enlargement, susceptible strains (Pseudomonas aeruginosa; 1 h incubation with 0.5 μg/ml and 1 μg/ml, 117 strains) | breakpoint concentration for cell enlargement, susceptible strains (Pseudomonas aeruginosa; ceftazidime, correlated to CLSI MIC≤8 μg/ml) [µg/mL] | breakpoint concentration for cell enlargement, resistant strains (Pseudomonas aeruginosa; ceftazidime, correlated to CLSI MIC≥32 μg/ml) | breakpoint concentration for cell enlargement, susceptible strains (Klebsiella pneumoniae) [µg/mL] | breakpoint concentration for cell enlargement, intermediate (Acinetobacter baumannii [2]; empirically correlated to CLSI MIC breakpoint 16 μg/ml) [µg/mL] | breakpoint concentration for cell enlargement, susceptible (Acinetobacter baumannii [2]; empirically correlated to CLSI MIC breakpoint ≤8 μg/ml) [µg/mL] | breakpoint concentration for cell enlargement, resistant (Acinetobacter baumannii [2]; empirically correlated to CLSI MIC breakpoint ≥32 μg/ml) [µg/mL] | cell enlargement (Acinetobacter baumannii [2]; highly resistant strain, 1 h incubation, tested 2, 4, 8 μg/ml) | concentration from which cell enlargement is demonstrated (Acinetobacter baumannii [2]; intermediate strain, 1 h incubation, tested 2, 4, 8 μg/ml) [µg/mL] | concentration from which cell enlargement is demonstrated (Acinetobacter baumannii [2]; resistant strain, 1 h incubation, tested 2, 4, 8 μg/ml) [µg/mL] | concentration from which cell enlargement is demonstrated (Acinetobacter baumannii [2]; susceptible strain, 1 h incubation, tested 2, 4, 8 μg/ml) [µg/mL]
1 | C[C@@H](O)[C@H]1C(=O)N2C(C(=O)O)=C(S[C@@H]3CN[C@H](C(=O)N(C)C)C3)[C@H](C)[C@H]12 [meropenem] | only after 0.5 μg/ml | never appeared enlarged | appeared enlarged | – | – | – | – | – | – | – | – | – | – | – | – | – | – | – | –
2 | CC(C)(O/N=C(\C(=O)N[C@@H]1C(=O)N2C(C(=O)[O-])=C(C[n+]3ccccc3)CS[C@H]12)c1csc(N)n1)C(=O)O [ceftazidime] | – | – | – | > 256 | 12 | 2.5 | never appeared enlarged | only after 1 μg/ml | appeared enlarged | 0.5 | greater than 1.0 μg/ml | 0.5 | 4 | ≤ 2 | ≥ 8 | did not demonstrate enlargement at any tested concentration | 8 | 8 | 2
